How the values were obtained:
Assay type in all cases: cell-based
[1] = system: Escherichia coli strain ATCC 25922; test: Inhibition of bacterial growth on plate, E. coli
Method: (§1) The antibacterial activity of chondroitin (C) and chondroitin sulphate (CS) on the growth of Escherichia coli ATCC 25922 and Enterococcus faecalis ATCC 19433 on a solid medium in vitro was examined. The concentrations explored ranged from 40 μg/mL to 40 mg/mL of C or CS as final concentrations in the medium. Brain-heart infusion (Oxoid) was used as culture medium for E. coli ATCC 25922, and M17 (Oxoid) for E. faecalis ATCC 19433; both media were adjusted to the same pH and the same osmolarity before being solidified by adding agar and cooled. 100 μL of a bacterial suspension containing 10^2, 10^3 or 10^4 bacteria/mL was plated as inoculum. The plates inoculated were incubated in shakers in air at 37° C. for 16 h. The number of colonies was then counted on control plates in the absence of the substances under study and on plates at the various concentrations of C and CS. The data from the experiments for the two micro-organisms, conducted in triplicate for each of the conditions, are shown in tables 7 and 8.

[2] = system: Enterococcus faecalis strain ATCC 19433; test: Inhibition of bacterial growth on plate, E. faecalis
Method: as §1, with “The plates inoculated were incubated in shakers in air at 37° C. for 16 h.” left out

Collagen Type I = test: Real-Time PCR gene expression in human chondrocytes: type I collagen; settings: for Fold Expression, Collagen Type I: 1% w/v, ratio to untreated control
Method: To evaluate the biological effects of chondroitin on human chondrocyte cultures, the expression of a set of genes considered key to establishing the phenotype, and suitable markers for evaluating the quality of the tissue generated, was determined. The study was conducted on chondrocytes prepared from human cartilage, as reported in Example 2, the cells being grown in the presence of chondroitin or chondroitin sulphate. Using a standard procedure, 5*10^4 cells per well were seeded in a 24-well multiwell plate. The chondrocytes were grown in DMEM containing 1% w/v of chondroitin or chondroitin sulphate (endotoxin content ≤0.1 EU/mg). The cells were stimulated for 4, 7 and 10 days (Ishak et al., International J. of Pediatric Otorhinolaryngology, 2011, 75: 835-840), after which the RNA was extracted with Trizol Reagent, as described in the kit manual (Life Technologies Ltd, Milan, Italy). A qualitative morphological analysis of the cell culture was also conducted at the various times, in parallel with RNA extraction, by observing the corresponding samples at 4, 7 and 10 days under the optical microscope. The cells seeded at the three different times were observed under the microscope, and the images that best represented the cell growth conditions were acquired using a time-lapse videomicroscopy workstation. After RNA extraction, reverse transcription was performed with a total of 1 μg RNA and then with amplification by Real-Time PCR of genes which are specific markers for chondrocytes (Table 3).
Genes connected with matrix production, such as aggrecan, type I collagen, type II collagen and the Sox9 gene, the expression of which is closely correlated with the expression of type II collagen, were analysed as specific markers for differentiation and characterisation of chondrocytes. (Akiyama H., Mod Rheumatol., 2008, 18(3): 213-9; Yang et al., J. of Orthopaedic Res. 2011).
The gene expression of said markers on human chondrocytes cultured in basic medium (control) and with chondroitin treatment (C) or chondroitin sulphate treatment (CS) was analysed on cell cultures in the second and third growth phases.
The results of the gene expression analysis were reported as the average of at least 3 independent experiments for tests conducted in the presence of C or CS, on cells in phases 2 and 3.

[3] = 40 μg/mL, 10 bacteria inoculated
[4] = 40 μg/mL, 100 bacteria inoculated
[5] = 40 μg/mL, 1000 bacteria inoculated
[6] = 400 μg/mL, 10 bacteria inoculated
[7] = 400 μg/mL, 100 bacteria inoculated
[8] = 400 μg/mL, 1000 bacteria inoculated
[9] = 4 mg/mL, 10 bacteria inoculated
[10] = 4 mg/mL, 100 bacteria inoculated
[11] = 4 mg/mL, 1000 bacteria inoculated
[12] = 40 mg/mL, 10 bacteria inoculated
[13] = 40 mg/mL, 100 bacteria inoculated
[14] = 40 mg/mL, 1000 bacteria inoculated
[15] = 40 mg/mL (maximum concentration)

chondroitin was tested, and the Inhibition factor ([1]; 40 μg/mL) was 1.3, the “Qualitative valuation of inhibition” value ([1]; 40 μg/mL) was “mild” and the “CFU after 16 h” value [1, 3] was 7 ± 2 CFU. For the same substance, the “CFU after 16 h” value [1, 4] was 80 ± 5 CFU, the “CFU after 16 h” value [1, 5] was 800 ± 70 CFU and the Inhibition factor ([1]; 400 μg/mL) was 9. The “Qualitative valuation of inhibition” value ([1]; 400 μg/mL) was “significant”, the “CFU after 16 h” value [1, 6] was 2 ± 1 CFU and the “CFU after 16 h” value [1, 7] was 10 ± 2 CFU. For the same substance, the “CFU after 16 h” value [1, 8] was 120 ± 30 CFU, the Inhibition factor ([1]; 4 mg/mL) was 66 and the “Qualitative valuation of inhibition” value ([1]; 4 mg/mL) was “high”. For the same substance, the “CFU after 16 h” value [1, 9] was 0 CFU, the “CFU after 16 h” value [1, 10] was 1 ± 1 CFU and the “CFU after 16 h” value [1, 11] was 20 ± 4 CFU. The Inhibition factor ([1]; 40 mg/mL) was 1000, the “Qualitative valuation of inhibition” value ([1]; 40 mg/mL) was “total inhibition of growth” and the “CFU after 16 h” value [1, 12] was 0 CFU. For the same substance, the “CFU after 16 h” value [1, 13] was 0 CFU, the “CFU after 16 h” value [1, 14] was 0 CFU and the Inhibition factor ([2]; 40 μg/mL) was 1.2. For the same substance, the “Qualitative valuation of inhibition” value ([2]; 40 μg/mL) was “mild”, the “CFU after 36 h” value [2, 3] was 8 ± 2 CFU and the “CFU after 36 h” value [2, 4] was 82 ± 5 CFU. The “CFU after 36 h” value [2, 5] was 870 ± 70 CFU, the Inhibition factor ([2]; 400 μg/mL) was 2 and the “Qualitative valuation of inhibition” value ([2]; 400 μg/mL) was “significant”. For the same substance, the “CFU after 36 h” value [2, 6] was 5 ± 1 CFU, the “CFU after 36 h” value [2, 7] was 55 ± 6 CFU and the “CFU after 36 h” value [2, 8] was 480 ± 30 CFU. For the same substance, the Inhibition factor ([2]; 4 mg/mL) was 6.1, the “Qualitative valuation of inhibition” value ([2]; 4 mg/mL) was “significant” and the “CFU after 36 h” value [2, 9] was 0 CFU. The “CFU after 36 h” value [2, 10] was 18 ± 4 CFU, the “CFU after 36 h” value [2, 11] was 150 ± 4 CFU and the “Qualitative valuation of inhibition” value ([2]; 40 mg/mL) was “high”. For the same substance, the Inhibition factor [2, 15] was 50, the “CFU after 36 h” value [2, 12] was 0 CFU and the “CFU after 36 h” value [2, 13] was 0 CFU. The “CFU after 36 h” value [2, 14] was 20 ± 2 CFU, the “Fold Expression, Collagen Type I” value (Collagen Type I; phase II, 4 g) was 1.23 ± 0.29 and the “Fold Expression, Collagen Type I” value (Collagen Type I; phase II, 7 g) was 1.03 ± 0.52. The “Fold Expression, Collagen Type I” value (Collagen Type I; phase II, 10 g) was 0.67 ± 0.20, the “Fold Expression, Collagen Type I” value (Collagen Type I; phase III, 4 g) was 0.24 ± 0.01 and the “Fold Expression, Collagen Type I” value (Collagen Type I; phase III, 7 g) was 0.85 ± 0.49. The “Fold Expression, Collagen Type I” value (Collagen Type I; phase III, 10 g) was 0.59 ± 0.13 and the “reduction in expression of type I collagen” value (Collagen Type I; growth phase 2, long incubation times, versus control) was 30%.

In the case of “chondroitin sulphate [CS, reference compound]”, the Inhibition factor ([1]; 40 μg/mL) is reported as 1, the “CFU after 16 h” value [1, 3] is reported as 7 ± 2 CFU and the “CFU after 16 h” value [1, 4] is reported as 85 ± 7 CFU. The “CFU after 16 h” value [1, 5] was 860 ± 70 CFU, the Inhibition factor ([1]; 400 μg/mL) was 2 and the “Qualitative valuation of inhibition” value ([1]; 400 μg/mL) was “mild”. The “CFU after 16 h” value [1, 6] was 5 ± 1 CFU, the “CFU after 16 h” value [1, 7] was 50 ± 5 CFU and the “CFU after 16 h” value [1, 8] was 400 ± 70 CFU. For the same substance, the Inhibition factor ([1]; 4 mg/mL) was 10, the “Qualitative valuation of inhibition” value ([1]; 4 mg/mL) was “significant” and the “CFU after 16 h” value [1, 9] was 0 CFU. For the same substance, the “CFU after 16 h” value [1, 10] was 9 ± 2 CFU, the “CFU after 16 h” value [1, 11] was 100 ± 10 CFU and the Inhibition factor ([1]; 40 mg/mL) was 330. The “Qualitative valuation of inhibition” value ([1]; 40 mg/mL) was “high”, the “CFU after 16 h” value [1, 12] was 0 CFU and the “CFU after 16 h” value [1, 13] was 0 CFU. The “CFU after 16 h” value [1, 14] was 3 ± 1 CFU, the “CFU after 36 h” value [2, 3] was 8 ± 2 CFU and the “CFU after 36 h” value [2, 4] was 90 ± 7 CFU. For the same substance, the “CFU after 36 h” value [2, 5] was 960 ± 70 CFU, the Inhibition factor ([2]; 400 μg/mL) was 1.3 and the “Qualitative valuation of inhibition” value ([2]; 400 μg/mL) was “mild”. The “CFU after 36 h” value [2, 6] was 7 ± 1 CFU, the “CFU after 36 h” value [2, 7] was 80 ± 5 CFU and the “CFU after 36 h” value [2, 8] was 780 ± 70 CFU. For the same substance, the Inhibition factor ([2]; 4 mg/mL) was 2, the “Qualitative valuation of inhibition” value ([2]; 4 mg/mL) was “significant” and the “CFU after 36 h” value [2, 9] was 5 ± 1 CFU. For the same substance, the “CFU after 36 h” value [2, 10] was 48 ± 4 CFU, the “CFU after 36 h” value [2, 11] was 520 ± 30 CFU and the “Qualitative valuation of inhibition” value ([2]; 40 mg/mL) was “high”. The Inhibition factor [2, 15] was 7.4, the “CFU after 36 h” value [2, 12] was 0 CFU and the “CFU after 36 h” value [2, 13] was 15 ± 2 CFU. The “CFU after 36 h” value [2, 14] was 120 ± 10 CFU, the “Fold Expression, Collagen Type I” value (Collagen Type I; phase II, 4 g) was 1.20 ± 0.56 and the “Fold Expression, Collagen Type I” value (Collagen Type I; phase II, 7 g) was 1.44 ± 0.08. For the same substance, the “Fold Expression, Collagen Type I” value (Collagen Type I; phase II, 10 g) was 1.36 ± 0.05, the “Fold Expression, Collagen Type I” value (Collagen Type I; phase III, 4 g) was 0.34 ± 0.01 and the “Fold Expression, Collagen Type I” value (Collagen Type I; phase III, 7 g) was 2.42 ± 0.88. The “Fold Expression, Collagen Type I” value (Collagen Type I; phase III, 10 g) was 1.09 ± 0.45.

Source: patent US10206944B2, “Chondroitin for use in medicine” (ALTERGON S.A., priority 2012, dated 2019)
